Measured values published in ChEMBL document CHEMBL1817647, “1-Heteroaryl-6-(3,4-dichlorophenyl)-3-azabicyclo[4.1.0]heptane: further insights into a class of triple re-uptake inhibitors” (Bioorg Med Chem, 2011).

Experiments:
[1] = biological target: Cytochrome P450 2C19 (Homo sapiens, UniProt P33261); assay: Inhibition of human CYP2C19 incubated for 10 mins before substrate addition by fluorescence assay
[2] = system: Liver microsomes; assay: Intrinsic clearance in human liver microsomes assessed per mg of protein at 0.5 uM for 30 mins by HPLC-MS/MS analysis in presence of NADPH; type: ADME, Microsome; conditions: 0.5 h
[3] = biological target: T1, Cytochrome P450 1A2 (Homo sapiens, UniProt P05177); assay: Inhibition of human CYP1A2 incubated for 10 mins before substrate addition by fluorescence assay
T1 sequence (P05177 whole entry): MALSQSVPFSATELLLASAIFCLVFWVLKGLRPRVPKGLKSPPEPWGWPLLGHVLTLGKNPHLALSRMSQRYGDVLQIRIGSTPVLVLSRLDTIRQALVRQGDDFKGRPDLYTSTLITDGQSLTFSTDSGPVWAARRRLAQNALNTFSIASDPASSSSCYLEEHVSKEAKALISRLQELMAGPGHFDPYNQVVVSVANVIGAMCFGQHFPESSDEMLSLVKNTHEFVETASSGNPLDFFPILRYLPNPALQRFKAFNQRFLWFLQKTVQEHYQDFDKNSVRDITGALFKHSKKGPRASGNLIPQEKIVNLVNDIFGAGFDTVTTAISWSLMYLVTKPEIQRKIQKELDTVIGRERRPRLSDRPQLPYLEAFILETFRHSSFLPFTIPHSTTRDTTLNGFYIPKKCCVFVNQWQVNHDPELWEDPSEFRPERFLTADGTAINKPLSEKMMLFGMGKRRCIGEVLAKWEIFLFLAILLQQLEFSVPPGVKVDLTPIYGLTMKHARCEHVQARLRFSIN

[4] = biological target: Sodium-dependent serotonin transporter (Homo sapiens, UniProt P31645); assay: Displacement of [3H]citalopram from human recombinant SERT scintillation proximity assay
Sequence of Sodium-dependent serotonin transporter (P31645 whole entry): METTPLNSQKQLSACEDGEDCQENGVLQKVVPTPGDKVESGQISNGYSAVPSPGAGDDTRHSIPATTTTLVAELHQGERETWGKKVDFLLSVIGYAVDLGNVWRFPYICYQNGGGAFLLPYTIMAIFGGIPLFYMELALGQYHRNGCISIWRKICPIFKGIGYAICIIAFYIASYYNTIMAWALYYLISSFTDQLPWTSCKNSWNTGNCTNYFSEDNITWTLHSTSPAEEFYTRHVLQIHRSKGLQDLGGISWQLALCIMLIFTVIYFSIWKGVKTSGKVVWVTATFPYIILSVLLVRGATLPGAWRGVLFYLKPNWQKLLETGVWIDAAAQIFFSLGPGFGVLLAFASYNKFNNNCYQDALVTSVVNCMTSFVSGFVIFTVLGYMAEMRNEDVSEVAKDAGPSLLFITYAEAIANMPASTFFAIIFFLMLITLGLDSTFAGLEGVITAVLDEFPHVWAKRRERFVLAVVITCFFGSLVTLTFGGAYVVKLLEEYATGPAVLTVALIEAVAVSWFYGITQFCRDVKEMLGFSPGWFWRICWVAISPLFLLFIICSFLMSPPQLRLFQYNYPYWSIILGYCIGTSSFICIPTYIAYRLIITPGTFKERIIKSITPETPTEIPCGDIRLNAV

[5] = biological target: Sodium-dependent noradrenaline transporter (Homo sapiens, UniProt P23975); assay: Displacement of [3H]nisoxetine from human recombinant NET by scintillation proximity assay
Sequence of Sodium-dependent noradrenaline transporter (P23975 whole entry): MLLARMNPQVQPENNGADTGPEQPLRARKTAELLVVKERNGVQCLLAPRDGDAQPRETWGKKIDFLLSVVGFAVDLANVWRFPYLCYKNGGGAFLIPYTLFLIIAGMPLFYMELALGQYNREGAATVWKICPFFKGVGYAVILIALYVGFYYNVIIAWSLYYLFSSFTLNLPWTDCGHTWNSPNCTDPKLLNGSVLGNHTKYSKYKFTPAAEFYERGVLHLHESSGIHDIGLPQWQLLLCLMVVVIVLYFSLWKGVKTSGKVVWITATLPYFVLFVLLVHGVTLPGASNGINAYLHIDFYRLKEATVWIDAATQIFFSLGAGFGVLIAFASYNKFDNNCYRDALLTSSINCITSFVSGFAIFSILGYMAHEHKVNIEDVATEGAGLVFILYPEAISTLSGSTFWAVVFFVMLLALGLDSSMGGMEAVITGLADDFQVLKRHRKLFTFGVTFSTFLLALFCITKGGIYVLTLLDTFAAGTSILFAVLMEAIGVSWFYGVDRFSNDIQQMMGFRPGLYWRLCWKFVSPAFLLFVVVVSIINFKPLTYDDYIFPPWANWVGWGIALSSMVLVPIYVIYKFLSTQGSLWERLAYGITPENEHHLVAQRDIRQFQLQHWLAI

[6] = biological target: Cytochrome P450 2D6 (Homo sapiens, UniProt P10635); assay: Inhibition of human CYP2D6 incubated for 10 mins before substrate addition by fluorescence assay
Sequence of Cytochrome P450 2D6 (P10635 whole entry): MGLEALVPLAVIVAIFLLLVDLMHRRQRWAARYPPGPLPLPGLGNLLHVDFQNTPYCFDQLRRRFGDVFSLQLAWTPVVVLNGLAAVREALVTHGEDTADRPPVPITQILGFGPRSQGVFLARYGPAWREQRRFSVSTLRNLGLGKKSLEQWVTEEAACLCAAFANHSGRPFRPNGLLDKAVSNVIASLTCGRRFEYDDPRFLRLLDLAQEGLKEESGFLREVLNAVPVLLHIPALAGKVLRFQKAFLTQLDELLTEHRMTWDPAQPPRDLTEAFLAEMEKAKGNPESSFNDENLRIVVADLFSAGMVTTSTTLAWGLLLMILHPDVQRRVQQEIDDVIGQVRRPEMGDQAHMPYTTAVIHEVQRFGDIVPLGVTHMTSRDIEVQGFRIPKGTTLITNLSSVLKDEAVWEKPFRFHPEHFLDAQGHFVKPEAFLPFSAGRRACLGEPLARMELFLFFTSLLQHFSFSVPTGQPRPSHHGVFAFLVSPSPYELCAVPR

[7] = biological target: Sodium-dependent dopamine transporter (Homo sapiens, UniProt Q01959); assay: Displacement of [3H]WIN-35428 from human recombinant DAT by scintillation proximity assay
Sequence of Sodium-dependent dopamine transporter (Q01959 whole entry): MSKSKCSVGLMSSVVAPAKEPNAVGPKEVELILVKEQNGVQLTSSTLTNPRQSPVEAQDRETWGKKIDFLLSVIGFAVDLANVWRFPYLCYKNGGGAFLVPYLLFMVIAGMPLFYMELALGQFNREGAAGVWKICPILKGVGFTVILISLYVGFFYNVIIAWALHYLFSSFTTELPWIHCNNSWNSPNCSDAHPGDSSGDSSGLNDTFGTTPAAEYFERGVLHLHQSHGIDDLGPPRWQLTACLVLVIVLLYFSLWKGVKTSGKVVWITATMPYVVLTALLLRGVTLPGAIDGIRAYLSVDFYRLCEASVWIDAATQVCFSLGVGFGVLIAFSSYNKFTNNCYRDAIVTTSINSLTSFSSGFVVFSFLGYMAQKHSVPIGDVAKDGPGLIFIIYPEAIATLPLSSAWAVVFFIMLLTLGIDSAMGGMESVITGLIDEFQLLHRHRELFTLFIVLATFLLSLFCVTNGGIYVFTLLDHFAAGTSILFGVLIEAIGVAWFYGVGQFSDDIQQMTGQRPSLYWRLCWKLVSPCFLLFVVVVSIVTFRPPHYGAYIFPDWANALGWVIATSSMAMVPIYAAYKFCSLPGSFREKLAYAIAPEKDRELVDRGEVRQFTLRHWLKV

[8] = biological target: Cytochrome P450 3A4 (Homo sapiens, UniProt P08684); assay: Inhibition of human CYP3A4 incubated for 10 mins before substrate addition by fluorescence assay
Sequence of Cytochrome P450 3A4 (P08684 whole entry): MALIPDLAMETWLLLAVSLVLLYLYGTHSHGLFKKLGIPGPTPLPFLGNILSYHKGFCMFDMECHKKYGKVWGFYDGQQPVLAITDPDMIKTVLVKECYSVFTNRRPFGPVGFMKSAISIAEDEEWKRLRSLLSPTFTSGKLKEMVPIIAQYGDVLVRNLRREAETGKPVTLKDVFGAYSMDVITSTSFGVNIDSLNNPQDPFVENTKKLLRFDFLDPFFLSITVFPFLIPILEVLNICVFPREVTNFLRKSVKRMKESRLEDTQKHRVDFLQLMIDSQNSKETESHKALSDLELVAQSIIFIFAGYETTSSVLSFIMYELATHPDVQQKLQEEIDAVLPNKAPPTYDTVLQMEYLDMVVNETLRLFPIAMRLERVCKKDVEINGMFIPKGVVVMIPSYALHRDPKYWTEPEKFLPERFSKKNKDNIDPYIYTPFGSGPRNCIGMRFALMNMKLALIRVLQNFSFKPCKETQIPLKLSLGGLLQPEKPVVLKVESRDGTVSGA

[9] = biological target: Cytochrome P450 2C9 (Homo sapiens, UniProt P11712); assay: Inhibition of human CYP2C9 incubated for 10 mins before substrate addition by fluorescence assay
Sequence of Cytochrome P450 2C9 (P11712 whole entry): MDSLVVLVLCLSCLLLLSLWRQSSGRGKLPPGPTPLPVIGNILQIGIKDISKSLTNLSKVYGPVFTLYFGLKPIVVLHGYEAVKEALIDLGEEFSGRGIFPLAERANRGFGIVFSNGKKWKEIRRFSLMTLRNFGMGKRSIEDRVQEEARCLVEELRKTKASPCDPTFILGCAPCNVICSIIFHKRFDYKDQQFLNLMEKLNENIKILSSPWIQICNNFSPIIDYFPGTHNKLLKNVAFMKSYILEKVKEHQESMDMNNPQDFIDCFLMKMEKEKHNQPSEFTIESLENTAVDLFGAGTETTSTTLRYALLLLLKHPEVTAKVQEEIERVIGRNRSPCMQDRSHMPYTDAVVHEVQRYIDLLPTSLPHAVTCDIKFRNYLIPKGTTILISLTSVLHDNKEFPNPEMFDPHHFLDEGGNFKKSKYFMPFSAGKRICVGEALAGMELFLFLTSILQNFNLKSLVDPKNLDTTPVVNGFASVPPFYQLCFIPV

[10] = system: Liver microsomes; assay: Intrinsic clearance in rat liver microsomes assessed per mg of protein at 0.5 uM for 30 mins by HPLC-MS/MS analysis in presence of NADPH; type: ADME, Microsome; conditions: 0.5 h
[11] = Ratio of drug level in brain to blood in rat after 1 hr; type: ADME, tissue-based; conditions: read-out: BBR
[12] = Blood clearance in rat; type: ADME, organism-based
[13] = Oral bioavailability in rat; type: ADME, organism-based; conditions: in vivo
[14] = Half life in rat; type: ADME, organism-based; conditions: in vivo
[15] = Hepatic extraction ratio in rat; conditions: in vivo
[16] = Volume of distribution in rat; type: ADME, organism-based; conditions: in vivo
[17] = Oral absorption in rat; type: ADME, organism-based; conditions: in vivo

Sequence of Cytochrome P450 2C19 (P33261 whole entry): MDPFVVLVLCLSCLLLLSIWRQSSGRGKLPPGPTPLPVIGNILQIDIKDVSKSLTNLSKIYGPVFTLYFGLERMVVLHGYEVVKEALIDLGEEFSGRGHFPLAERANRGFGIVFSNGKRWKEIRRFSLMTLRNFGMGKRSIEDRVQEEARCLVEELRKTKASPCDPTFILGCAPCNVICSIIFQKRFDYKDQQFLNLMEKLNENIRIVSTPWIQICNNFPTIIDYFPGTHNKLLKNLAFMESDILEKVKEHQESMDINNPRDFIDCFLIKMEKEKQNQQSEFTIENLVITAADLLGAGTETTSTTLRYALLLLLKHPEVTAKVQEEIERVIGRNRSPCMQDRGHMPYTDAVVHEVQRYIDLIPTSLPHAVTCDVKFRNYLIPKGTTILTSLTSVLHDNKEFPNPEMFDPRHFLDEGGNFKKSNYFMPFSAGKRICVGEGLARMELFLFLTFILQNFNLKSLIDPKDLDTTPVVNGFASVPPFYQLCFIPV

Compound | Ki [4] [µM] | Ki [5] [µM] | Ki [7] [µM] | further results
Cc1csc(C23CNCC[C@]2(c2ccc(Cl)c(Cl)c2)C3)n1 (single isomer, unassigned; enantiomer 1) | 0.000398 | 0.000398 | 0.0002 | IC50 [1]: > 6 µM; CL [2]: 2.6 mL/min/g; IC50 [3]: > 6 µM; IC50 [6]: > 6 µM; IC50 [8]: > 6 µM; IC50 [9]: > 6 µM; CL [10]: 5.4 mL/min/g
Cc1ccn(CC23CNCC[C@]2(c2ccc(Cl)c(Cl)c2)C3)n1 (stereo in doubt) | 0.000251 | 0.00316 | 0.0158 | IC50 [1]: > 10 µM; IC50 [3]: > 10 µM; IC50 [6]: > 10 µM; IC50 [8]: > 10 µM; IC50 [9]: > 10 µM
Clc1ccc([C@]23CCNC[C@@]2(Cn2cncn2)C3)cc1Cl (racemic) | 0.00398 | 0.1 | 0.2 | –
Cc1noc([C@@]23CNCC[C@]2(c2ccc(Cl)c(Cl)c2)C3)n1 (racemic) | 0.00794 | 0.0316 | 0.000794 | –
Cc1cc(C)n(CC23CNCC[C@]2(c2ccc(Cl)c(Cl)c2)C3)n1 (single isomer, unassigned; enantiomer 1) | 0.0158 | 0.501 | 0.158 | –
Cc1ncoc1C[C@@]12CNCC[C@]1(c1ccc(Cl)c(Cl)c1)C2 (racemic) | 0.00316 | 0.0251 | 0.0126 | –
N#Cc1cccn1C[C@@]12CNCC[C@]1(c1ccc(Cl)c(Cl)c1)C2 (racemic) | 0.00251 | 0.0398 | 0.0126 | –
Cc1cc(C(F)(F)F)nn1C[C@@]12CNCC[C@]1(c1ccc(Cl)c(Cl)c1)C2 (racemic) | 0.001 | 0.0251 | 0.002 | –
Cc1ccnn1CC12CNCC[C@]1(c1ccc(Cl)c(Cl)c1)C2 (single isomer, unassigned; enantiomer 2) | 0.000794 | 0.00158 | 0.00316 | IC50 [1]: > 10 µM; CL [2]: 2.5 mL/min/g; IC50 [3]: > 10 µM; IC50 [6]: > 10 µM; IC50 [8]: > 10 µM; IC50 [9]: > 10 µM; CL [10]: 2.6 mL/min/g
Clc1ccc([C@]23CCNCC2(Cn2ccc4ccccc42)C3)cc1Cl (stereo partly specified) | 0.00126 | 0.0631 | 0.02 | –
CC(C)c1nnn(C[C@@]23CNCC[C@]2(c2ccc(Cl)c(Cl)c2)C3)n1 (racemic) | 0.000794 | 0.398 | 0.0251 | –
Cc1nc(C)n(C[C@@]23CNCC[C@]2(c2ccc(Cl)c(Cl)c2)C3)n1 (racemic) | 0.00316 | 0.0398 | 0.0251 | –
Cc1coc(C[C@@]23CNCC[C@]2(c2ccc(Cl)c(Cl)c2)C3)n1 (racemic) | 0.002 | 0.0316 | 0.0631 | –
CC(C)(C)c1ccn(C[C@@]23CNCC[C@]2(c2ccc(Cl)c(Cl)c2)C3)n1 (racemic) | 0.000251 | 0.0501 | 0.00631 | –
Cc1cc(C)n(C[C@@]23CNCC[C@]2(c2ccc(Cl)c(Cl)c2)C3)n1 (racemic) | 0.000398 | 0.00158 | 0.00631 | –
Cc1nc(C)n(CC23CNCC[C@]2(c2ccc(Cl)c(Cl)c2)C3)n1 (stereo in doubt; 38) | 0.0398 | 1.58 | 0.2 | –
Cc1ccn(CC23CNCC[C@]2(c2ccc(Cl)c(Cl)c2)C3)n1 (single isomer, unassigned; enantiomer 1) | 0.02 | 1 | 0.316 | –
Cc1cnc([C@@]23CNCC[C@]2(c2ccc(Cl)c(Cl)c2)C3)o1 (racemic) | 0.00631 | 0.00631 | 0.001 | –
Cc1csc([C@@]23CNCC[C@]2(c2ccc(Cl)c(Cl)c2)C3)n1 (racemic) | 0.000501 | 0.000398 | 0.000158 | –
FC(F)(F)c1ccn(C[C@@]23CNCC[C@]2(c2ccc(Cl)c(Cl)c2)C3)n1 (racemic) | 0.002 | 0.158 | 0.0251 | –

Compound | Ki [4] [µM] | Ki [5] [µM] | Ki [7] [µM] | further results
Cc1ccc(C)n1C[C@@]12CNCC[C@]1(c1ccc(Cl)c(Cl)c1)C2 (racemic) | 0.00251 | 0.02 | 0.02 | –
N#Cc1ccn(C[C@@]23CNCC[C@]2(c2ccc(Cl)c(Cl)c2)C3)n1 (racemic) | 0.001 | 0.0251 | 0.0251 | –
Cc1cc(C(F)(F)F)n(C[C@@]23CNCC[C@]2(c2ccc(Cl)c(Cl)c2)C3)n1 (racemic) | 0.000794 | 0.01 | 0.00126 | –
Clc1ccc([C@]23CCNCC2(Cn2cc4ccccc4n2)C3)cc1Cl (stereo partly specified) | 0.0002 | 0.0501 | 0.00398 | –
Cc1cnn(C[C@@]23CNCC[C@]2(c2ccc(Cl)c(Cl)c2)C3)c1 (racemic) | 0.000794 | 0.0794 | 0.126 | –
Cc1nc(C)n(CC23CNCC[C@]2(c2ccc(Cl)c(Cl)c2)C3)n1 (single isomer, unassigned; enantiomer 1) | 0.002 | 0.0251 | 0.0158 | IC50 [1]: > 25 µM; Kp at 1 h [11]: 0.4; IC50 [3]: > 25 µM; clearance [12]: 63 mL/min/kg; bioavailability [13]: 17%; half-life [14]: 1.7 h; IC50 [6]: > 25 µM; IC50 [8]: > 25 µM; IC50 [9]: > 25 µM; hepatic extraction ratio [15]: 0.8; Vd [16]: 8.1 L/kg; Fa [17]: 94%
Cc1ccnn1CC12CNCC[C@]1(c1ccc(Cl)c(Cl)c1)C2 (stereo in doubt; 16) | 0.02 | 0.316 | 0.1 | –
Cc1cc(C)n(CC23CNCC[C@]2(c2ccc(Cl)c(Cl)c2)C3)n1 (single isomer, unassigned) | 0.0002 | 0.001 | 0.00316 | CL [2]: 2.4 mL/min/g; Kp at 1 h [11]: 0.8; clearance [12]: 52 mL/min/kg; bioavailability [13]: 6%; half-life [14]: 2.3 h; Vd [16]: 6.9 L/kg; Fa [17]: 50%; CL [10]: 5.5 mL/min/g
Cc1cc([C@@]23CNCC[C@]2(c2ccc(Cl)c(Cl)c2)C3)no1 (racemic) | 0.00794 | 0.0398 | 0.002 | –
Cc1cc(C)n(C[C@@]23CNCC[C@]2(c2ccc(Cl)c(Cl)c2)C3)c1 (racemic) | 0.002 | 0.02 | 0.00794 | –
N#Cc1ccnn1C[C@@]12CNCC[C@]1(c1ccc(Cl)c(Cl)c1)C2 (racemic) | 0.00501 | 0.0316 | 0.02 | –
N#Cc1ccn(CC23CNCC[C@]2(c2ccc(Cl)c(Cl)c2)C3)c1 (single isomer, unassigned; enantiomer 1) | 0.000631 | 0.0316 | 0.0126 | –
Cc1csc(C[C@@]23CNCC[C@]2(c2ccc(Cl)c(Cl)c2)C3)n1 (racemic) | 0.0001 | 0.000631 | 0.00631 | –
Cc1csc(C23CNCC[C@]2(c2ccc(Cl)c(Cl)c2)C3)n1 (stereo in doubt; 7) | 0.0158 | 0.0316 | 0.02 | –
Cc1ccn(CC23CNCC[C@]2(c2ccc(Cl)c(Cl)c2)C3)c1 (stereo partly specified) | 0.000501 | 0.0398 | 0.0316 | –
CC(C)c1nnnn1C[C@@]12CNCC[C@]1(c1ccc(Cl)c(Cl)c1)C2 (racemic) | 0.0631 | 0.398 | 0.0631 | –
Clc1ccc([C@]23CCNCC2(Cn2ncc4ccccc42)C3)cc1Cl (stereo partly specified) | 0.000251 | 0.0501 | 0.0158 | –
FC(F)(F)c1ccnn1C[C@@]12CNCC[C@]1(c1ccc(Cl)c(Cl)c1)C2 (racemic) | 0.002 | 0.01 | 0.00158 | –
Clc1ccc([C@]23CCNC[C@@]2(Cn2cccc2)C3)cc1Cl (racemic) | 0.000398 | 0.01 | 0.0158 | –
